# Assays:
# [1] = test system: mice with paclitaxel-induced neuropathic pain (CIPN); assay: von Frey paw withdrawal threshold (mechanical allodynia), paclitaxel-induced CIPN / central sensitization, treatment of established pain, topical test compounds; assay type: in vivo, mouse; settings: for PWT: naproxen 2.4%, aspirin […], ibuprofen 2.5% topical both hind paws 3x/day 14 days; for Paw-withdrawal threshold, g Mean ± SEM, Day 0: group value after paclitaxel, before study drug
# Experimental: Paw withdrawn, licking or shaking were considered positive responses.
# (§1) The first doses were administered 5 days after the last administration of paclitaxel (i.e., at day 0).
# The PWT test was performed prior to the administration of paclitaxel (day −8) to establish the threshold in mice without neuropathic pain associated with CIPN (the value shown is an average of the PWT in all groups at day −8).
# Pain associated with CIPN was established in line with the experiments disclosed herein. Mice were treated with naproxen 2.4% (equimolar to PN 5%), aspirin 1.7% (equimolar to PA2 5%); or ibuprofen 2.5% (equimolar to PI 5%) or vehicle applied topically to both hind paws 3×/day for 14 days.
# CIPN was induced in mice with chemotherapeutic agents using established protocols (Carozzi et al, 2010; Currie et al, 2019; Eldridge et al, 2020).
# The first doses were administered 1 day after the last administration of paclitaxel (i.e., at day 0).
# as §1
# The PWT test was performed on day 21, at the end of the experiment, but was also additionally determined on day 14 for LXIX.
# [2] = test system: mice with paclitaxel-induced CIPN; assay: von Frey PWT, paclitaxel CIPN model, orally administered compounds; assay type: in vivo, mouse; settings: for PWT, g: 100 mg/kg oral gavage 3x/day; for PWT: oral gavage 3x/day 6 days: ibuprofen 40, PI 80, PIA 80, PGI 60 mg/kg, day 6
# Text: CIPN was induced in mice with chemotherapeutic agents using established protocols (Carozzi et al, 2010; Currie et al, 2019; Eldridge et al, 2020). […] This dosing regimen of paclitaxel produces pain associated with CIPN with time courses that are similar to those of pain after paclitaxel administration in cancer patients.
# Group 1: naïve mice (i.e. no paclitaxel, n=8) • 2. Group 2: paclitaxel only (n=8) • 3. Group 3: paclitaxel plus vehicle (n=8) • 4. […] Group 5: paclitaxel pluse sulindac (n=8)
# The PWT test was performed on day 7.
# Phospho-naproxen (PN) and naproxen were given by oral gavage, three times a day for 7 days. Their doses were as follows: PN, 65 mg/kg; naproxen, 35 mg/kg (equimolar to PN). The response of mechanical allodynia to phospho-naproxen (PN) and naproxen was tested on day 7.
# (§2) This dosing regimen of paclitaxel produces pain associated with CIPN with time courses that are similar to those of pain after paclitaxel administration in cancer patients.
# Phospho-ibuprofen (PI) (Formula III), phospho-glycerol-ibuprofen (PGI) (Formula LXXI), phospho-ibuprofen-amide (PIA) (Formula XI), and ibuprofen were given by oral gavage, three times a day for 6 days. Their doses were as follows: ibuprofen, 40 mg/kg; PI, 80 mg/kg; PIA, 80 mg/kg; all three were equimolar.
# The response of mechanical allodynia to these compounds was tested on day 6, using the PWT test.
# as §2
# NO-sulindac (Formula XLIV), HS-sulindac (Formula XXXIV), platinum-sulindac (Formula LXVII), and NOSH-1 (Formula LIX) were given by oral gavage, three times a day throughout the study period. Their doses were all 100 mg/kg.
# The response of mechanical allodynia to these compounds was tested on the days set out in the table below, via the PWT test.
# LXIX was given by oral gavage, once a day for 14 days at a dose of 100 mg/kg.
# The response of mechanical allodynia to these compounds was tested on day 14, via the PWT test.
# [3] = test system: mice with paclitaxel-induced CIPN; assay: thermal allodynia (paw withdrawal latency, radiant heat), paclitaxel CIPN model; assay type: in vivo, mouse; settings: NO-sulindac, HS-sulindac 5% topical 3x/day
# Experimental: Group 3: paclitaxel pluse sulindac (n=8)
# Thermal allodynia was also determined for the mice study groups below (with 8 mice per group): • 1. Group 1: naïve mice (i.e. no paclitaxel) • 2. Group 2: paclitaxel only • 3. Group 3: paclitaxel plus vehicle • 4. Group 4: paclitaxel plus NO-sulindace • 5. Group 5: paclitaxel plus thiol-sulindac
# [4] = test system: mice with chronic constriction injury (PTPN); assay: von Frey PWT, CCI model of PTPN, orally administered compounds; assay type: in vivo, mouse; settings: for PWT, g Mean ± SEM: oral 3x/day 14 days: PI 80, PIA 80, ibuprofen 40 mg/kg, day 14
# Experimental: Phospho-ibuprofen (PI) (Formula III), phospho-ibuprofen-amide (PIA) (Formula XI), ibuprofen and vehicle control were all administered orally, three times a day for 14 days. Their doses were as follows: PI 80 mg/kg, PIA 80 mg/kg, ibuprofen 40 mg/kg (all three are equimolar). […] Group 1: vehicle (n=5-8) • 2. Group 2: ibuprofen (n=5-8) • 3. Group 3: phospho-ibuprofen (PI) (n=5-8) • 4. Group 4: phospho-ibuprofen-amide (PIA) (n=5-8)
# [5] = test system: mice with chronic constriction injury of the left sciatic nerve (PTPN); assay: von Frey PWT, chronic constriction injury (CCI) model of PTPN, topical compounds; assay type: in vivo, mouse; settings: for PWT, g mean ± SEM, Day 14: NOSH-1, LXIX, LXX 5% on left hind paw 3x/day 14 days; for PWT, g Mean ± SEM, Baseline: group value following ligation, prior to treatment
# Experimental: The PWT test was performed following ligation, but prior to treatment to determine baseline values. The PWT was then further measured on day 14.
# [6] = test system: mice with NTG-induced migraine; assay: von Frey PWT, NTG-induced migraine model, oral or intraperitoneal compounds; assay type: in vivo, mouse; settings: oral 30 min after NTG: PS 50, sulindac 33, PN 65, naproxen 35 mg/kg; 30 min after administration
# Experimental: Phosphonaproxen (Formula VIII), and its parent compound, naproxen, were administered orally to each mouse group. All compounds were administered at equimolar doses. In particular, phosponaproxen was administered at 65 mg/kg, and naproxen was administered at 35 mg/kg, 30 minutes after NTG administration. The response of mechanical allodynia was tested 30 minutes after administration.
# [7] = test system: mice with NTG-induced chronic migraine; assay: von Frey PWT, NTG-induced chronic migraine model; assay type: in vivo, mouse; settings: for PWT, g Mean ± SEM, Day 12 (pre-treatment): day 12 after first NTG dose, before compound administration; for PWT, g Mean ± SEM, Baseline: group baseline prior to NTG (Example 17)
# Text: The NTG-induced chronic migraine model was used as described previously.
# STZ-diabetic rats = assay type: in vivo, rat; settings: rat, in vivo
# Text: The animal model corresponds to that used for Example 4, but using a prevention protocol. As in Example 4, the outcome measure, determining the effect of the treatment on the prevention of mechanical allodynia, was the PWT test, using von Frey filaments. The measurements were taken at day −3, before treatment or induction of neuropathic pain associated with DPN, and again at the end of the study period (day 28).
# The rats were randomised into treatment groups as follows, all having an average body weight of about 225 g. • 1. Group 1: naïve rats (n=6) • 2. Group 2: STZ only (n=8) • 3. Group 3: STZ plus vehicle (n=8) • 4. […] Group 5: STZ plus sulindac 0.7% (n=8) • 6. Group 6: STZ plus lidocaine cream 5% (n=8)
# Each treatment group was subjected to a PWT assessment at day −3 in order to determine the baseline of mechanical allodynia.
# For those rats in the lidocaine treatment group, lidocaine cream was applied only once to both hind paws of the rats 30 min before the final PWT measurement on day 28. On day 0, neuropathic pain associated with DPN was induced with the administration of STZ, and the blood glucose was checked on day 3.
# [8] = drug levels in proximal and distal half of the sciatic nerve after topical PS; assay type: in vivo, mouse; settings: mouse, in vivo
# Experimental: In a separate experiment we studied 8 mice with paclitaxel-induced PN treated with PS 8% ointment 3×/d for 2 wks. Mice were euthanized as above 30 minutes after the last dose of PS. From these mice we harvested both sciatic nerves dividing each into proximal and distal halves, and combined the corresponding halves of every two animals for assay of drug levels.
compound,measurement,setting,value
"CC(=O)Oc1ccccc1C(=O)O [Aspirin, aspirin, reference compound]",PWT,[1],0.69 ± 0.10 g
CC1=C(CC(=O)Oc2ccc(-c3cc(=S)ss3)cc2)c2cc(F)ccc2/C1=C\c1ccc([S+](C)[O-])cc1 (stereo not shown) [HS-sulindac],"PWT, g",[2]; D 2,D 2 = 0.90 ± 0.09 g
same,"PWT, g",[2]; D 4,D 4 = 1.10 ± 0.05 g
same,"PWT, g",[2]; D 13,D 13 = 1.23 ± 0.06 g
same,"PWL, sec Mean ± SEM",[3],9.9 ± 0.6 s
same,"PWT, g Mean ± SEM","[1]; paclitaxel 8 mg/kg x4, 5% topical both hind paws 3x/day 17 days",0.99 ± 0.15 g
"CC(C)Cc1ccc(C(C)C(=O)O)cc1 (stereo not shown) [Ibuprofen, ibuprofen, reference compound]","PWT, g Mean ± SEM",[4],0.58 ± 0.02 g
same,PWT,[2],0.53 ± 0.05 g
same,PWT,[1],0.60 ± 0.08 g
COc1ccc2cc(C(C)C(=O)Oc3ccc(C(N)=S)cc3)ccc2c1 (stereo not shown) [LXIX],"PWT, g Mean ± SEM","[2]; LXIX 100 mg/kg oral gavage once a day 14 days, day 14",0.93 ± 0.14 g
same,"PWT, g Mean ± SEM","[1]; LXIX 5% topical both hind paws 3x/day, Day 14",Day 14 = 0.86 ± 0.10 g
same,"PWT, g Mean ± SEM","[1]; LXIX 5% topical both hind paws 3x/day, Day 21",Day 21 = 1.20 ± 0.14 g
same,"PWT, g mean ± SEM, Day 14",[5],1.35 ± 0.23 g
same,"PWT, g Mean ± SEM, Baseline",[5],0.55 ± 0.09 g
CC(C(=O)Oc1ccc(C(N)=S)cc1)c1cccc(C(=O)c2ccccc2)c1 (stereo not shown) [LXX],"PWT, g mean ± SEM, Day 14",[5],1.28 ± 0.29 g
same,"PWT, g Mean ± SEM, Baseline",[5],0.58 ± 0.07 g
"O=C(CCCO[N+](=O)[O-])Oc1ccccc1C(=O)Oc1ccc(-c2cc(=S)ss2)cc1 [NOSH1, NOSH-aspirin]","PWT, g",[2]; D 2,D 2 = 0.93 ± 0.17 g
same,"PWT, g",[2]; D 4,D 4 = 1.39 ± 0.15 g
same,"PWT, g",[2]; D 13,D 13 = 1.33 ± 0.11 g
same,"PWT, g mean ± SEM, Day 14",[5],2.00 ± 0.00 g
same,"PWT, g Mean ± SEM, Baseline",[5],0.60 ± 0.00 g
"COc1ccc2cc([C@H](C)C(=O)O)ccc2c1 [Naproxen, naproxen, reference compound]","PWT, g Mean ± SEM",[6],0.56 ± 0.02 g
same,"PWT, g Mean ± SEM","[2]; paclitaxel 8 mg/kg x4, oral gavage 3x/day 7 days: PS 50, sulindac 33, PN 65, naproxen 35 mg/kg, day 7",0.53 ± 0.05 g
same,PWT,[1],0.61 ± 0.11 g
"CCOP(=O)(OCC)OCC(COC(=O)C(C)c1ccc(CC(C)C)cc1)OP(=O)(OCC)OCC (stereo not shown) [PGI, phospho-glycerol-ibuprofen]",PWT,[2],1.60 ± 0.11 g
"CCOP(=O)(OCC)OCC(CNC(=O)C(C)c1ccc(CC(C)C)cc1)OP(=O)(OCC)OCC (stereo not shown) [PGIA, phospho-glycerol-ibuprofen-amide]","PWT, g Mean ± SEM","[1]; mouse, in vivo",1.70 ± 0.25 g
"CCOP(=O)(OCC)OCCCCOC(=O)C(C)c1ccc(CC(C)C)cc1 (stereo not shown) [PI, phospho-ibuprofen]","PWT, g Mean ± SEM",[4],0.82 ± 0.07 g
same,PWT,[2],1.41 ± 0.23 g
same,"Paw-withdrawal threshold, g Mean ± SEM, Day 0",[1],0.64 ± 0.05 g
same,"Paw-withdrawal threshold, g Mean ± SEM, Day 14","[1]; mouse, in vivo",0.8 ± 0.07 g
same,"PWT, g Mean ± SEM","[5]; PI, PN 5% on left hind paw 3x/day 14 days, day 14",1.54 ± 0.19 g
"CCOP(=O)(OCC)OCCCCNC(=O)C(C)c1ccc(CC(C)C)cc1 (stereo not shown) [PIA, phosphoibuprofen-amide]",PWT,"[4]; PIA 80 mg/kg oral 3x/day, day 5",1.43 ± 0.19 g
same,"PWT, g Mean ± SEM",[4],1.74 ± 0.12 g
same,PWT,[2],1.79 ± 0.40 g
"CNS(=O)(=O)Cc1ccc2[nH]cc(CCN(C)C)c2c1 [Sumatriptan, sumatriptan]","PWT, g Mean ± SEM, Day 12 (pre-treatment)",[7],0.57 ± 0.02 g
same,"PWT, g Mean ± SEM, Baseline",[7],1.90 ± 0.06 g
"CC1(C)O[C@@H]2[C@@H](CO[C@@]3(COS(N)(=O)=O)OC(C)(C)O[C@@H]23)O1 [Topiramate, topiramate]","PWT, g Mean ± SEM, Day 12 (pre-treatment)",[7],0.60 ± 0.00 g
same,"PWT, g Mean ± SEM, Baseline",[7],2.40 ± 0.24 g
CCOP(=O)(OCC)OCC(COC(=O)c1ccccc1OC(C)=O)OP(=O)(OCC)OCC (stereo not shown) [glycero-phospho-aspirin II],"Paw-withdrawal threshold, g Mean ± SEM, Day 0",[1],0.66 ± 0.05 g
same,"Paw-withdrawal threshold, g Mean ± SEM, Day 14","[1]; mouse, in vivo",0.69 ± 0.06 g
CCN(CC)CC(=O)Nc1c(C)cccc1C [lidocaine],"von Frey, gm mean ± SEM",STZ-diabetic rats,34.3 ± 1.6 gm
CC1=C(CC(=O)O)c2cc(F)ccc2/C1=C\c1ccc(S(C)(=O)=O)cc1 [sulindac sulfone],Fold difference distal vs proximal,[8],4.5
NO-aspirin,"PWT, g Mean ± SEM","[1]; paclitaxel 8 mg/kg x4, 5% topical both hind paws 3x/day, Day 8",1.47 ± 0.08 g
platinum-sulindac [Pt-sulindac],"PWT, g",[2]; D 2,D 2 = 1.01 ± 0.17 g
same,"PWT, g",[2]; D 4,D 4 = 1.03 ± 0.19 g
same,"PWT, g",[2]; D 13,D 13 = 1.34 ± 0.07 g
